What follows are compounds tested against T1, Androgen receptor (Homo sapiens, UniProt P10275) (assay: Inhibition of androgen receptor in human LNCaP cells assessed as inhibition of AR transcription activity by dual-luciferase reporter assays). Settings: not given.
T1 sequence (P10275 whole entry): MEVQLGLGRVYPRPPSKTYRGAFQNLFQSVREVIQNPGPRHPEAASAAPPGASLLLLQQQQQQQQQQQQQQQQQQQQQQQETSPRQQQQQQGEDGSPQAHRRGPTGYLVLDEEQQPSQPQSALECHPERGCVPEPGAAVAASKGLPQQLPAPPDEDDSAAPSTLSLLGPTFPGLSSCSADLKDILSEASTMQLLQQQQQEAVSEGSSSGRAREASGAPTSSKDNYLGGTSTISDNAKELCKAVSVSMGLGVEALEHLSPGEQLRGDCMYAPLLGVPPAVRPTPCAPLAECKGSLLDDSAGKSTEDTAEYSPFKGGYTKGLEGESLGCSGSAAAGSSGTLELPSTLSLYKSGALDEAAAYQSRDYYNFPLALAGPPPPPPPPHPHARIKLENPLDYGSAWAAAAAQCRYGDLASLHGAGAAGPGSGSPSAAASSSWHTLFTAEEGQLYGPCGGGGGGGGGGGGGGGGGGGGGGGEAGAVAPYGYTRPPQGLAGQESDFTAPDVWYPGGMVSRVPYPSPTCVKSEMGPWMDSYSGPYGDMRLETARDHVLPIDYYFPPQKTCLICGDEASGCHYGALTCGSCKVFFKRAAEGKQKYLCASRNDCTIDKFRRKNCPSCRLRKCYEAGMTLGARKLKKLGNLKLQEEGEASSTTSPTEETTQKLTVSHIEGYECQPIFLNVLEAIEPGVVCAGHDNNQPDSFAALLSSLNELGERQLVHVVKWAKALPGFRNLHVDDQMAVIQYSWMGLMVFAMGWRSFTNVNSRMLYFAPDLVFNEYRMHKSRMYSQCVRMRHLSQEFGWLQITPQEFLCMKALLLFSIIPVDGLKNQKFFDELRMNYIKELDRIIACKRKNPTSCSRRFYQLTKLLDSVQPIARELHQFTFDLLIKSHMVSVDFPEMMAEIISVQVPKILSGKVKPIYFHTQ
Format: cell-based

SMILES	IC50 [µM]
Cc1c(O)c(O)c(C=O)c(COCc2cccc3ccccc23)c1-c1ccccc1	> 5
Cc1c(O)c(O)c(C=O)c(COCc2ccc(F)cc2)c1-c1ccccc1	2.38
CCc1c(O)c(O)c(C=O)c(COCc2ccccc2)c1-c1ccccc1	> 5
Cc1c(O)c(O)c(C=O)c2c1C1(CC2)c2ccccc2-c2ccccc21	> 5
Cc1c(O)c(O)c(C=O)c(COCc2ccccc2)c1-c1ccccc1	> 5
Cc1c(O)c(O)c(C=O)c(COCc2ccccc2)c1-c1ccc([N+](=O)[O-])cc1	3.74
Cc1c(O)c(O)c(C=O)c2c1C(C#Cc1ccc(Br)cc1)CC2 (stereo not drawn)	> 5
CC(C)c1cc(COCc2ccccc2)c(C=O)c(O)c1O	> 5
Cc1c(O)c(O)c(C=O)c(COCc2ccccc2)c1-c1ccccc1Br	> 5
Cc1c(O)c(O)c(C=O)c(COCc2ccc(OC(F)(F)F)cc2)c1-c1ccccc1	2.72
COc1ccc(COCc2cc(C)c(O)c(O)c2C=O)cc1	> 5
Cc1c(O)c(O)c(C=O)c(COCc2ccc(F)cc2)c1-c1ccc(C(F)(F)F)cc1	2.14
Cc1c(O)c(O)c(C=O)c(COCc2ccccc2)c1-c1cc(F)ccc1F	> 5
C=CCc1c(C)c(O)c(O)c(C=O)c1COCc1ccccc1	> 5
Cc1c(O)c(O)c(C=O)c(COCc2ccccc2)c1-c1ccccc1OC(F)(F)F	> 5
Cc1c(O)c(O)c(C=O)c(COCc2ccccc2)c1-c1ccc(C(F)(F)F)cc1Br	4.08
Cc1c(O)c(O)c(C=O)c(CO[C@H]2CC[C@@]3(C)C(=CC[C@@H]4[C@@H]3CC[C@]3(C)C(=O)CC[C@@H]43)C2)c1-c1ccccc1	3.22
Cc1c(O)c(O)c(C=O)c(COCc2cccc(Cl)c2Cl)c1-c1ccccc1	2.81
Cc1c(O)c(O)c(C=O)c2c1[C@@H](c1ccc(C(=O)O[C@H]3CC[C@@]4(C)C(=CC[C@H]5[C@@H]6CC[C@H]([C@H](C)CCCC(C)C)[C@@]6(C)CC[C@@H]54)C3)cc1)CC2	> 5
Cc1c(O)c(O)c(C=O)c(COCc2ccccc2)c1-c1ccc(C(F)(F)F)cc1	1.23
Cc1c(O)c(O)c(C=O)c(COCc2ccccc2)c1-c1ccc(Cl)cc1Br	> 5
Cc1c(O)c(O)c(C=O)c(COCc2ccccc2F)c1-c1ccccc1	> 5
Cc1c(O)c(O)c(C=O)c(COCc2ccccc2)c1-c1ccc(F)c(F)c1	2.05
Cc1c(O)c(O)c(C=O)c(COCc2ccccc2F)c1-c1ccc(F)cc1	> 5
Cc1c(O)c(O)c(C=O)c(COCc2ccc(F)cc2)c1-c1ccc(F)cc1	2.41
COC(=O)c1ccc(-c2c(C)c(O)c(O)c(C=O)c2COCc2ccccc2)cc1	4.23

SMILES	IC50 [µM]
Cc1c(C)c(COCc2ccccc2)c(C=O)c(O)c1O	> 5
Cc1ccc(COCc2c(C=O)c(O)c(O)c(C)c2-c2ccccc2)cc1	> 5
Cc1c(O)c(O)c(C=O)c(COCc2ccccc2)c1-c1ccccc1C(F)(F)F	> 5
C=CCc1c(C)c(O)c(O)c(C=O)c1COCc1ccc(OC)cc1	> 5
Cc1ccccc1-c1c(C)c(O)c(O)c(C=O)c1COCc1ccccc1	> 5
Cc1c(O)c(O)c(C=O)c(COCc2ccccc2)c1-c1cccc(Br)c1F	> 5
Cc1c(O)c(O)c(C=O)c(COCc2ccccc2)c1-c1ccc(Cl)cc1C(F)(F)F	> 5
Cc1c(O)c(O)c(C=O)c(COCc2ccccc2)c1-c1ccc(C(C)(C)C)cc1	3.51
CCc1cc(COCc2ccccc2)c(C=O)c(O)c1O	> 5
Cc1c(O)c(O)c(C=O)c(COCc2ccccc2)c1-c1ccc(OC(F)(F)F)cc1	4.49
Cc1c(O)c(O)c(C=O)c(COCc2ccccc2F)c1-c1cccc(F)c1	> 5
Cc1cc(COCc2ccccc2)c(C=O)c(O)c1O	> 5
Cc1cccc(-c2c(C)c(O)c(O)c(C=O)c2COCc2ccccc2)c1	> 5
COc1cccc(COCc2c(C=O)c(O)c(O)c(C)c2-c2ccccc2)c1	> 5
Cc1c(O)c(O)c(C=O)c(COCc2ccccc2)c1-c1ccc(Br)cc1F	3.39
Cc1c(O)c(O)c(C=O)c(COCc2ccccc2)c1-c1ccc(F)cc1Cl	> 5
Cc1c(O)c(O)c(C=O)c(COCc2ccccc2)c1-c1ccc(F)cc1F	2.3
Cc1c(O)c(O)c(C=O)c(COCc2ccccc2)c1-c1ccc(-c2ccccc2)cc1	> 5
Cc1c(O)c(O)c(C=O)c(COCc2cccc(F)c2)c1-c1ccc(F)cc1	2.58
Cc1c(O)c(O)c(C=O)c(COCc2ccccc2)c1CO[Si](C)(C)C	> 5
Cc1cc(CO[C@H]2CC[C@@]3(C)C(=CC[C@@H]4[C@@H]3CC[C@]3(C)C(=O)CC[C@@H]43)C2)c(C=O)c(O)c1O	> 5
Cc1c(O)c(O)c(C=O)c(COCc2ccccc2)c1-c1ccc(F)cc1	> 5
Cc1c(O)c(O)c(C=O)c(COCc2cccc(F)c2)c1-c1cccc(F)c1	2.89
Cc1c(O)c(O)c(C=O)c(COCc2cccc(F)c2)c1-c1ccccc1	4.05
Cc1c(O)c(O)c(C=O)c(COCc2ccccc2)c1-c1ccccc1C#N	> 5
Cc1c(O)c(O)c(C=O)c(COCc2cccc(C(F)(F)F)c2)c1-c1ccccc1	3.05

SMILES	IC50 [µM]
COc1ccccc1-c1c(C)c(O)c(O)c(C=O)c1COCc1ccccc1	> 5
Cc1c(O)c(O)c(C=O)c(COCc2ccccc2)c1-c1cccc2ccccc12	> 5
Cc1c(O)c(O)c(C=O)c(COCc2ccccc2F)c1-c1ccc(C(F)(F)F)cc1	2.52
CC(C)=CCC/C(C)=C/COCc1cc(C)c(O)c(O)c1C=O	> 5
Cc1c(O)c(O)c(C=O)c(COCc2ccccc2)c1-c1cccs1	> 5
Cc1ccc(F)cc1-c1c(C)c(O)c(O)c(C=O)c1COCc1ccccc1	> 5
C#CCOCc1c(C=O)c(O)c(O)c(C)c1-c1ccccc1	> 5
COc1ccccc1COCc1c(C=O)c(O)c(O)c(C)c1-c1ccccc1	> 5
Cc1ccc(-c2c(C)c(O)c(O)c(C=O)c2COCc2ccccc2)cc1	3.27
Cc1c(O)c(O)c(C=O)c(COCc2ccccc2)c1-c1cc(C(F)(F)F)cc(C(F)(F)F)c1	4.39
Cc1c(O)c(O)c(C=O)c(CSCCC(C)C)c1-c1ccccc1	> 5
Cc1c(O)c(O)c(C=O)c(COCc2ccccc2C(F)(F)F)c1-c1ccccc1	2.54
Cc1c(O)c(O)c(C=O)c(COCc2ccccc2)c1-c1ccccc1Cl	> 5
COc1ccc(-c2c(C)c(O)c(O)c(C=O)c2COCc2ccccc2)cc1	> 5
Cc1c(O)c(O)c(C=O)c(COCc2ccccc2)c1-c1ccc(Br)cc1	3.47
Cc1c(O)c(O)c(C=O)c(COCc2ccccc2)c1-c1ccc(Br)c(F)c1	2.19
Cc1c(O)c(O)c(C=O)c(COCc2ccccc2)c1-c1ccc(C(F)(F)F)cc1Cl	3.25
C=C(C)Cc1c(C)c(O)c(O)c(C=O)c1COCc1ccccc1	> 5
Cc1c(O)c(O)c(C=O)c(COCc2ccc(F)cc2)c1-c1cccc(F)c1	2.09
Cc1cccc(COCc2c(C=O)c(O)c(O)c(C)c2-c2ccccc2)c1	4.53
Cc1cc(C)cc(-c2c(C)c(O)c(O)c(C=O)c2COCc2ccccc2)c1	> 5
Cc1c(O)c(O)c(C=O)c(COCc2ccccc2C(F)(F)F)c1-c1cccc(F)c1	> 5
Cc1c(O)c(O)c(C=O)c(COCc2ccc(C(F)(F)F)cc2)c1-c1ccccc1	3.32
Cc1c(O)c(O)c(C=O)c(COCc2cccc(F)c2)c1-c1ccc(C(F)(F)F)cc1	2.09
Cc1c(O)c(O)c(C=O)c(COCc2ccccc2)c1-c1ccc(Cl)cc1	4.9

What follows are compounds tested on CWR22R (assay: Antiproliferative activity against human 22Rv1 cells assessed as cell growth inhibition incubated for 72 hrs by MTT assay). Settings: 22Rv1, 72 h.
Format: functional, cell-based

SMILES	IC50 [µM]
CNC(=O)c1ccc(N2C(=S)N(c3ccc(C#N)c(C(F)(F)F)c3)C(=O)C2(C)C)cc1F [ENZALUTAMIDE]	46.3

Source: ChEMBL document CHEMBL5223107 (Bioorg Med Chem Lett, 2022)
